Our source for the EC50 values is patent US8309734B2 (Hoffmann-La Roche Inc., priority 2008, dated 2012).

Structures are written as SMILES.

This assay has as its target T1, human GPBAR1 receptor (Homo sapiens, UniProt Q8TDU6).
T1 construct: expressed in transfected cells
T1 sequence (Q8TDU6 1-330): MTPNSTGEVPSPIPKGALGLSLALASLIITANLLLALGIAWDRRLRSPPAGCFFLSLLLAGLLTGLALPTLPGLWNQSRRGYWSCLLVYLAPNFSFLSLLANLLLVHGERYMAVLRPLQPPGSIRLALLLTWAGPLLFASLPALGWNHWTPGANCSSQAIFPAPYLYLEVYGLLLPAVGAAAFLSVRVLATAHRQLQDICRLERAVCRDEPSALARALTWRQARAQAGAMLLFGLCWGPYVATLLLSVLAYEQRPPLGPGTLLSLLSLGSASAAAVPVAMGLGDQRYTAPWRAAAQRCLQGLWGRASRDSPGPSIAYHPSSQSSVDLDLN
In words: functional cAMP assay in CHO-dhfr(minus) cells expressing human GPBAR1 receptors. In kind it is cell-based. To be noted: cAMP increase (TR-FRET) in CHO-dhfr(minus) cells expressing human GPBAR1; compounds incubated 30 min at 30° C. A general note: Cyclic AMP is a second messenger, typically raised through Gs and lowered through Gi signalling.

One may read the EC50 as the concentration at which the effect is half-maximal. A high value points to a need for much substance. `O=C(c1ccccc1Oc1cc(Cl)ccc1Cl)N1CCCc2ccccc21` [Example 110, [2-(2,5-Dichloro-phenoxy)-phenyl]-(3,4-dihydro-2H-quinolin-1-yl)-methanone] displayed an EC50 of 29 nM. Consider `O=C(c1ccccc1Oc1cc(Cl)ccc1Cl)N1CCCc2cc(F)c(F)cc21` [Example 111, [2-(2,5-Dichloro-phenoxy)-phenyl]-(6,7-difluoro-3,4-dihydro-2H-quinolin-1-yl)-methanone], for which the midpoint of the response, the EC50, lay at 102 nM. The result for `CC1Cc2ccccc2N1C(=O)c1ccccc1Oc1cc(Cl)ccc1Cl` (stereo not shown) [Example 112, [2-(2,5-Dichloro-phenoxy)-phenyl]-(2-methyl-2,3-dihydro-indol-1-yl)-methanone] reads 1710 nM; that for `O=C(c1cc(F)ccc1Oc1cc(Cl)ccc1Cl)N1CCCc2ccccc21` [Example 113, [2-(2,5-Dichloro-phenoxy)-5-fluoro-phenyl]-(3,4-dihydro-2H-quinolin-1-yl)-methanone], 149 nM; that for `CC1CCc2ccccc2N1C(=O)c1cc(F)ccc1Oc1cc(Cl)ccc1Cl` (stereo not shown) [Example 114, [2-(2,5-Dichloro-phenoxy)-5-fluoro-phenyl]-(2-methyl-3,4-dihydro-2H-quinolin-1-yl)-methanone], 946 nM. With `Cc1cccc2c1N(C(=O)c1cc(F)ccc1Oc1cc(Cl)ccc1Cl)CCC2` [Example 115, [2-(2,5-Dichloro-phenoxy)-5-fluoro-phenyl]-(8-methyl-3,4-dihydro-2H-quinolin-1-yl)-methanone] the figure was 920 nM; with `Cc1ccc2c(c1)CCCN2C(=O)c1cc(F)ccc1Oc1cc(Cl)ccc1Cl` [Example 116, [2-(2,5-Dichloro-phenoxy)-5-fluoro-phenyl]-(6-methyl-3,4-dihydro-2H-quinolin-1-yl)-methanone], 1160 nM.

`O=C(c1cc(F)ccc1Oc1cc(Cl)ccc1Cl)N1CCOc2ccccc21` [Example 117, [2-(2,5-Dichloro-phenoxy)-5-fluoro-phenyl]-(2,3-dihydro-benzo[1,4]oxazin-4-yl)-methanone] yielded an EC50 of 572 nM. With `CN(C(=O)c1cc(F)ccc1Oc1cc(Cl)ccc1Cl)c1ccccc1` [Example 118, 2-(2,5-Dichloro-phenoxy)-5-fluoro-N-methyl-N-phenyl-benzamide] the figure was 771 nM; with `N#Cc1ccc(Oc2cc(Cl)ccc2Cl)c(C(=O)N2CCCc3ccccc32)c1` [Example 119, 4-(2,5-Dichloro-phenoxy)-3-(3,4-dihydro-2H-quinoline-1-carbonyl)-benzo nitrile], 165 nM. With `Cc1cc(F)c2c(c1)CCCN2C(=O)c1ccccc1Oc1cc(Cl)ccc1Cl` [Example 120, [2-(2,5-Dichloro-phenoxy)-phenyl]-(8-fluoro-6-methyl-3,4-dihydro-2H-quinolin-1-yl)-methanone] the figure was 1650 nM; with `O=C(c1ccccc1Oc1cc(Cl)ccc1Cl)N1CCCc2cc(F)cc(F)c21` [Example 121, [2-(2,5-Dichloro-phenoxy)-phenyl]-(6,8-difluoro-3,4-dihydro-2H-quinolin-1-yl)-methanone], 231 nM. `O=C(c1cccnc1Oc1cc(Cl)ccc1Cl)N1CCNc2ccccc21` [Example 122, [2-(2,5-Dichloro-phenoxy)-pyridin-3-yl]-(3,4-dihydro-2H-quinoxalin-1-yl)-methanone] registered an EC50 of 62 nM. Take `CC(C)N1CCN(C(=O)c2cccnc2Oc2cc(Cl)ccc2Cl)c2ccccc21` [Example 124, [2-(2,5-Dichloro-phenoxy)-pyridin-3-yl]-(4-isopropyl-3,4-dihydro-2H-quinoxalin-1-yl)-methanone]: the concentration for a half-maximal effect (EC50) was found to be 607 nM.

In turn, `O=C(c1cccnc1Oc1cc(Cl)ccc1Cl)N1CCN(C2CC2)c2ccccc21` [Example 125, (4-Cyclopropyl-3,4-dihydro-2H-quinoxalin-1-yl)-[2-(2,5-dichloro-phenoxy)-pyridin-3-yl]-methanone] came in with a concentration for a half-maximal effect (EC50) of 4 nM.

As for `O=C(c1cccnc1Oc1cc(Cl)ccc1Cl)N1CCN(C2CCC2)c2ccccc21` [Example 126, (4-Cyclobutyl-3,4-dihydro-2H-quinoxalin-1-yl)-[2-(2,5-dichloro-phenoxy)-pyridin-3-yl]-methanone], the EC50 amounted to 10 nM.

As for `O=C(c1cccnc1Oc1cc(Cl)ccc1Cl)N1CCN(C2COC2)c2ccccc21` [Example 127, [2-(2,5-Dichloro-phenoxy)-pyridin-3-yl]-(4-oxetan-3-yl-3,4-dihydro-2H-quinoxalin-1-yl)-methanone], the EC50 amounted to 14 nM. With `O=C1CCN(C(=O)c2cccnc2Oc2cc(Cl)ccc2Cl)c2ccccc21` [Example 128, 1-[2-(2,5-Dichloro-phenoxy)-pyridine-3-carbonyl]-2,3-dihydro-1H-quinolin-4-one] the figure was 918 nM; with `C=C1CCN(C(=O)c2cccnc2Oc2cc(Cl)ccc2Cl)c2ccccc21` [Example 129, [2-(2,5-Dichloro-phenoxy)-pyridin-3-yl]-(4-methylene-3,4-dihydro-2H-quinolin-1-yl)-methanone], 24 nM. The result for `O=C(c1cccnc1Oc1cc(Cl)ccc1Cl)N1CCC(N2CC(F)(F)C2)c2ccccc21` (stereo not shown) [Example 130, [2-(2,5-Dichloro-phenoxy)-pyridin-3-yl]-[4-(3,3-difluoro-azetidin-1-yl)-3,4-dihydro-2H-quinolin-1-yl]-methanone] reads 1830 nM.

In turn, `CN(C(=O)c1cccnc1Oc1cc(Cl)ccc1Cl)c1ccccc1C1CC1` [Example 131, N-(2-Cyclopropyl-phenyl)-2-(2,5-dichloro-phenoxy)-N-methyl-nicotinamide] came in with an EC50 of 321 nM.

As for `CSc1ccccc1N(C)C(=O)c1cccnc1Oc1cc(Cl)ccc1Cl` [Example 132, 2-(2,5-Dichloro-phenoxy)-N-methyl-N-(2-methylsulfanyl-phenyl)-nicotinamide], the EC50 is 66 nM. The molecule `CN(C(=O)c1cccnc1Oc1cc(Cl)ccc1Cl)c1ccccc1-c1ccnn1C` [Example 133, 2-(2,5-Dichloro-phenoxy)-N-methyl-N-[2-(2-methyl-2H-pyrazol-3-yl)-phenyl]-nicotinamide] gave an EC50 of 1970 nM. With `CN(C(=O)c1cccnc1Oc1cc(Cl)ccc1Cl)c1ccccc1N` [Example 134, N-(2-Amino-phenyl)-2-(2,5-dichloro-phenoxy)-N-methyl-nicotinamide] the figure was 1650 nM; with `CN(C(=O)c1cccnc1Oc1cc(Cl)ccc1Cl)c1cc(Cl)ccc1Cl` [Example 135, 2-(2,5-Dichloro-phenoxy)-N-(2,5-dichloro-phenyl)-N-methyl-nicotinamide], 473 nM; with `O=C(c1cccnc1Oc1cc(Cl)ccc1Cl)N1CC2CCCN2c2ccccc21` (stereo not shown) [Example 136, [2-(2,5-Dichloro-phenoxy)-pyridin-3-yl]-(2,3,3a,4-tetrahydro-1H-pyrrolo[1,2-a]quinoxalin-5-yl)-methanone], 246 nM. With `CC(C)CN1CCN(C(=O)c2cccnc2Oc2cc(Cl)ccc2Cl)c2ccccc21` [Example 137, [2-(2,5-Dichloro-phenoxy)-pyridin-3-yl]-(4-isobutyl-3,4-dihydro-2H-quinoxalin-1-yl)-methanone] the figure was 201 nM; with `O=C(c1cccnc1Oc1cc(Cl)ccc1Cl)N1CCN(CC2CC2)c2ccccc21` [Example 138, (4-Cyclopropylmethyl-3,4-dihydro-2H-quinoxalin-1-yl)-[2-(2,5-dichloro-phenoxy)-pyridin-3-yl]-methanone], 35 nM.
